Laboratory results: patent publication US20140288052A1, “SUBSTITUTED BICYCLIC AZA-HETEROCYCLES AND ANALOGUES AS SIRTUIN MODULATORS” (GlaxoSmithKline, LLC, priority 2011, published 2014)

Key:
[1] = biological target: T1, SIRT1 (Homo sapiens, UniProt Q96EB6); assay: TAMRA based mass spectrometry assay of SIRT1 deacetylase activation; format: biochemical; details: TAMRA peptide substrate; for TAMRA EC1.5 (μM): concentration that results in 150% activation of SIRT1; for TAMRA % Fold Act: percent maximum fold activation relative to control (100%)
T1 sequence (Q96EB6 1-747): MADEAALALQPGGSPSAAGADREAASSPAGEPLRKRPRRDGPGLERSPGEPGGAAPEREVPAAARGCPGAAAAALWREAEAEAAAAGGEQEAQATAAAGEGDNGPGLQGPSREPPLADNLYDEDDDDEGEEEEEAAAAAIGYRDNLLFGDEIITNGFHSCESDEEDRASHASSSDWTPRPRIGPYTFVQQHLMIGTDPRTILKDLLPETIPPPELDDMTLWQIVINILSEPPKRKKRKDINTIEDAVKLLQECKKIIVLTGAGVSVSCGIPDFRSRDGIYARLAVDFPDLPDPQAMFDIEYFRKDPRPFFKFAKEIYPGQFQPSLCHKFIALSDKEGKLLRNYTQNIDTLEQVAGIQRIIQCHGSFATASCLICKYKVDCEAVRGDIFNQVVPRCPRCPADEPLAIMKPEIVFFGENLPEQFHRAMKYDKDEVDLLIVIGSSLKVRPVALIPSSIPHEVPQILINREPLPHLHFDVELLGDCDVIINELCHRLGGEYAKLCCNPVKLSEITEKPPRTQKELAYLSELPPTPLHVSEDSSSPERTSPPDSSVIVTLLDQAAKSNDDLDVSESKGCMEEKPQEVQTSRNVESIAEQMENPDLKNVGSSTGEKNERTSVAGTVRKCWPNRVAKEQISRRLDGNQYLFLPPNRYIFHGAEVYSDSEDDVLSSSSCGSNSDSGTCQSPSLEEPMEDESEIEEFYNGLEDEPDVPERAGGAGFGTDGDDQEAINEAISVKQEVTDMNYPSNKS
Summary of the method: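 E. coli-expressed N-terminal His-tagged human SIRT1 (10 nM) was incubated 25 min at 25 °C, pH 8 Tris-acetate buffer, with 0.5 μM TAMRA-labelled p53-derived acetyl-peptide, 120 μM NAD+ and varying compound; formic acid stop, mass-spec quantitation of deacetylated product vs DMSO controls. EC1.5 = concentration giving 150% activation.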

[2] = biological target: T1, SIRT1; assay: Trp mass spectrometry assay of SIRT1 deacetylase activation; format: biochemical; details: Trp peptide substrate; for TRP EC1.5 (μM): concentration that results in 150% activation of SIRT1; for TRP % Fold Act: percent maximum fold activation relative to control (100%)
Summary of the method: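 His-tagged human SIRT1 (E. coli-expressed, 10 nM) was incubated with 0.5 μM Ac-RHKK(Ac)W-NH2 peptide and 120 μM βNAD+ for 25 min at 25 °C in HEPES pH 7.5, 1500 mM NaCl, with varying compound; formic acid quench. OAADPR or deacetylated peptide was quantified by mass spectrometry against DMSO control. EC1.5 (150% activation) and percent maximum activation were derived.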

Row | Structure (SMILES) | TAMRA EC1.5 (μM) [1] | TAMRA % Fold Act [1] | TRP EC1.5 (μM) [2] | TRP % Fold Act [2]
1 | O=C(Nc1cnccn1)c1ccnc2cc(-c3cccc(C(F)(F)F)c3)nn12 [Compound 102] | C (EC1.5>25 μM) | B (Fold Activation<350%) | C (EC1.5>25 μM) | B (Fold Activation<350%)
2 | O=C(Nc1ccnc2cc(-c3ccccc3C(F)(F)F)nn12)c1cncnc1 [Compound 104] | C (EC1.5>25 μM) | B (Fold Activation<350%) | C (EC1.5>25 μM) | B (Fold Activation<350%)
3 | Cc1ccnc(C(=O)Nc2ccnc3cc(-c4ccccc4C(F)(F)F)nn23)c1 [Compound 105] | A (EC1.5<1 μM) | A (Fold activation≧350%) | C (EC1.5>25 μM) | B (Fold Activation<350%)
4 | COc1cccc(C(=O)Nc2ccnc3cc(-c4ccccc4C(F)(F)F)nn23)n1 [Compound 111] | A (EC1.5<1 μM) | A (Fold activation≧350%) | C (EC1.5>25 μM) | B (Fold Activation<350%)
5 | O=C(Nc1ccnc2cc(-c3ccccc3C(F)(F)F)nn12)c1cccc(OC[C@H](O)CO)n1 [Compound 114] | A (EC1.5<1 μM) | A (Fold activation≧350%) | A (EC1.5<1 μM) | A (Fold activation≧350%)
6 | O=C(Nc1ccnc2cc(-c3ccccc3C(F)(F)F)nn12)c1cccc(OC[C@@H](O)CO)n1 [Compound 115] | A (EC1.5<1 μM) | A (Fold activation≧350%) | A (EC1.5<1 μM) | A (Fold activation≧350%)
7 | O=C(Nc1ccnc2cc(-c3ccccc3C(F)(F)F)nn12)c1ncc(F)cc1F [Compound 116] | A (EC1.5<1 μM) | A (Fold activation≧350%) | C (EC1.5>25 μM) | B (Fold Activation<350%)
8 | O=C(Nc1ccnc2cc(-c3ccccc3C(F)(F)F)nn12)c1cnc(O)cn1 [Compound 117] | A (EC1.5<1 μM) | A (Fold activation≧350%) | C (EC1.5>25 μM) | B (Fold Activation<350%)

Results, then the compound that gave them:

Row | TAMRA EC1.5 (μM) [1] | TAMRA % Fold Act [1] | TRP EC1.5 (μM) [2] | TRP % Fold Act [2] | Structure (SMILES)
9 | B (EC1.5 1−25 μM) | B (Fold Activation<350%) | C (EC1.5>25 μM) | B (Fold Activation<350%) | O=C(Nc1ccnc2cc(-c3ccccc3C(F)(F)F)nn12)c1cccnc1 [Compound 103]
10 | A (EC1.5<1 μM) | A (Fold activation≧350%) | C (EC1.5>25 μM) | B (Fold Activation<350%) | Cc1cc(C)nc(C(=O)Nc2ccnc3cc(-c4ccccc4C(F)(F)F)nn23)c1 [Compound 106]
11 | A (EC1.5<1 μM) | A (Fold activation≧350%) | C (EC1.5>25 μM) | B (Fold Activation<350%) | Cc1cnc(C(=O)Nc2ccnc3cc(-c4ccccc4C(F)(F)F)nn23)cn1 [Compound 108]
12 | A (EC1.5<1 μM) | A (Fold activation≧350%) | C (EC1.5>25 μM) | B (Fold Activation<350%) | Cc1cccc(C(=O)Nc2ccnc3cc(-c4ccccc4C(F)(F)F)nn23)n1 [Compound 109]
13 | B (EC1.5 1−25 μM) | A (Fold activation≧350%) | B (EC1.5 1−25 μM) | B (Fold Activation<350%) | O=C(Nc1ccnc2cc(-c3ccccc3C(F)(F)F)nn12)c1ccn[nH]1 [Compound 110]
14 | A (EC1.5<1 μM) | A (Fold activation≧350%) | C (EC1.5>25 μM) | B (Fold Activation<350%) | Cc1cccnc1C(=O)Nc1ccnc2cc(-c3ccccc3C(F)(F)F)nn12 [Compound 112]
15 | A (EC1.5<1 μM) | A (Fold activation≧350%) | B (EC1.5 1−25 μM) | B (Fold Activation<350%) | O=C(Nc1ccnc2cc(-c3ccccc3C(F)(F)F)nn12)c1ncccc1F [Compound 113]
